These are literature values, as cited in paper PMC4358631 (Journal of Medicinal Chemistry, 2014).

This data set has as its target α3β4 nAChR (Rattus norvegicus, UniProt P04757+P12392). The note with it: compounds bind to the central lumen of the receptor.

Sequence of α3β4 nAChR (P04757 26-499): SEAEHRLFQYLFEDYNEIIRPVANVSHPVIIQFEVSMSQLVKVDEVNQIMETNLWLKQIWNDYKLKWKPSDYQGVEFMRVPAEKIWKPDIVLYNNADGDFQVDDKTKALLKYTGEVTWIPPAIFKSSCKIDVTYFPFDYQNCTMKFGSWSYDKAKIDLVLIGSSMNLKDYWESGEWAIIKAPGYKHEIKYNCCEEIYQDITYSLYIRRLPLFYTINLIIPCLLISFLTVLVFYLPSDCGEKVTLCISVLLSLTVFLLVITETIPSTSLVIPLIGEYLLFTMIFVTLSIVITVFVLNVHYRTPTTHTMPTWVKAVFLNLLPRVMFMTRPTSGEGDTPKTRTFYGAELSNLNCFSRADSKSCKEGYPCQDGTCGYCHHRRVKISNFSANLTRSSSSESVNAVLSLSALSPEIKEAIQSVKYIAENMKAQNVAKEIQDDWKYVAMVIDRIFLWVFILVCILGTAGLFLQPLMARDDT
Sequence of α3β4 nAChR (P12392 22-495 limits assumed): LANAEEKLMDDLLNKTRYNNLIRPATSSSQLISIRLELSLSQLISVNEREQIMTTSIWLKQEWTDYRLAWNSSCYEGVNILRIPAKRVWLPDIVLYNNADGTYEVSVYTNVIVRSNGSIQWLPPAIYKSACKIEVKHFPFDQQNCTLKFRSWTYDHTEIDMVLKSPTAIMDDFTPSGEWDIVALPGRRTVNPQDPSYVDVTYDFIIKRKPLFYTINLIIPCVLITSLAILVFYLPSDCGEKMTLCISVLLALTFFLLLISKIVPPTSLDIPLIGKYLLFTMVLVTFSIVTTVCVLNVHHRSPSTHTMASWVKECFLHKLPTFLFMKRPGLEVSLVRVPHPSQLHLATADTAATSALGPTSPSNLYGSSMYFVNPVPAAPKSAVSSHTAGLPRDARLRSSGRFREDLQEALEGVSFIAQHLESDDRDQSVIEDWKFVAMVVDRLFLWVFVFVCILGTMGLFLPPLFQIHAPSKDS

With `CNC1(C)C2CCC(C2)C1(C)C` (centres unmarked) [mecamylamine], the “inhibition of [3H]epibatidine binding” value is listed as “do not inhibit”.

As for `COCC[C@H]1CC2CN3CCc4c([nH]c5ccccc45)[C@](C(=O)OC)(C2)[C@H]13` [18-MC, 18-methoxycoronaridine], the “inhibition of [3H]epibatidine binding” value is recorded as “do not inhibit”.
